Measured values as given in patent US11702418B2, “SOS1 inhibitors” (priority 2019, dated 2023).
pIC50, pKi: −log10 of the molar value. Counter-ions that a name gives are not always drawn. Like-named read-outs stand apart in the source and are kept apart here.

Experiments:
[1] = molecular target: recombinant human SOS1 polypeptide (amino acids 560-1049) (Homo sapiens (Human), UniProt Q07889); assay: biochemical; type: binding
Description: The ability of a compound of Formula (I) to bind to SOS1 was measured using a HTRF displacement assay. […] After a 1-hour incubation at room temperature, the HTRF signal was measured using Clairostar plate reader (BMG Labtech) according to the manufacturer's instructions. Excitation filter EX-TR was used, and emission 1 was detected at 650-610 nm and emission 2 detected at 620-610 nm. The HTRF ratio was calculated using the formula: [emission 1/emission 2]*10000.
Background signals were calculated from well with a 10 μM inhibitor, known to inhibit 100% at that concentration. The background subtracted signals were converted to % binding relative to DMSO controls. Data were analyzed using XLFIT software (IDBS) using a Morrison equation for competitive binding and Ki's were generated compound of Formula (I).

[2] = test system: pERK in MKN1 cells; assay: cells; type: cell-based; settings: Homo sapiens
[3] = read-out: Ki, Inhibition of Labeled Tracer Binding to SOS1
[4] = HTRF displacement, Cy5 labelled tracer, Morrison equation for competitive binding, read-out: Ki, Inhibition of Labeled Tracer Binding to SOS1
[5] = MKN-1, pERK inhibition, In-Cell Western, MKN1 or H358 cells (Table 24 does not say which), 0.5-1 hour incubation, read-out: IC50

Chain of recombinant human SOS1 polypeptide (amino acids 560-1049) (Q07889 560-1049): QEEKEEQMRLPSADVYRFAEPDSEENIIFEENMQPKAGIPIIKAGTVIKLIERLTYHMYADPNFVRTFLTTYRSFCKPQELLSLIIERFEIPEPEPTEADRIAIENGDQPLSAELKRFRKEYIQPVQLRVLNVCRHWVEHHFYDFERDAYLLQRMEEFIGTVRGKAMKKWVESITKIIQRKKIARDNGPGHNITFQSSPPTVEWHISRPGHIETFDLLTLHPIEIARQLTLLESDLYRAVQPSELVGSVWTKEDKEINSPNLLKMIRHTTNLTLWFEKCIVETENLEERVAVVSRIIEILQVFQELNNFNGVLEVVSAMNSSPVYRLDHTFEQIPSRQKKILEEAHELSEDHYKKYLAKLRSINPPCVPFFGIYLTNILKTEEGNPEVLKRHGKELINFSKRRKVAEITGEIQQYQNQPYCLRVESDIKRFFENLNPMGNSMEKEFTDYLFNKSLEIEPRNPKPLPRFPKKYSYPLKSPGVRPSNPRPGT

## Cc1c(C(F)F)cccc1[C@@H](C)Nc1nnc(C)c2ccc(N3CCC(N4CCC4)CC3)cc12 [Example 10-44, (R)-7-(4-(azetidin-1-yl)piperidin-1-yl)-N-(1-(3-(difluoromethyl)-2-methylphenyl)ethyl)-4-methylphthalazin-1-amine hydrochloride salt]
[1]; [3]
  pKi: 9.29
[2]; MKN-1
  pIC50: 7.28

## Cc1c([C@@H](C)Nc2nnc(C)c3cnc(N4CC5(COC5)C4)cc23)cccc1C(F)(F)F [Example 12-3]
[1]; [4]
  pKi: 9.13
[2]; [5]
  pIC50: 7.52

## Cc1c([C@@H](C)Nc2nnc(C)c3cnc(N4CC(C)(O)C4)cc23)cccc1C(F)(F)F [Example 12-21]
[1]; [4]
  pKi: 8.88
[2]; [5]
  pIC50: 7.24

## CCN1CCN(c2cc3c(N[C@H](C)c4cccc(C#N)c4C)nnc(C)c3cn2)CC1 [Example 12-52]
[1]; [4]
  pKi: 8.97
[2]; [5]
  pIC50: 7.22

## Cc1c(C#N)cccc1[C@@H](C)Nc1nnc(C)c2cnc(N3CCN(C(=O)C4CC4)CC3)cc12 [Example 11-6, (R)-3-(1-((7-(4-(cyclopropanecarbonyl)piperazin-1-yl)-4-methylpyrido[3,4-d]pyridazin-1-yl)amino)ethyl)-2-methylbenzonitrile]
[1]; [4]
  pKi: 9.38
[2]; [5]
  pIC50: 7.26

## COc1c(C#N)cccc1[C@@H](C)Nc1nnc(C)c2cnc(N3CC(C)(O)C3)cc12 [Example 17-3, (R)-3-(1-((7-(3-hydroxy-3-methylazetidin-1-yl)-4-methylpyrido[3,4-d]pyridazin-1-yl)amino)ethyl)-2-methoxybenzonitrile]
[1]; [4]
  pKi: 7.89
[2]; [5]
  pIC50: 6.73

## COC1(C)CN(c2cc3c(N[C@H](C)c4cccc(C#N)c4C)nnc(C)c3cn2)C1 [Example 12-55]
[1]; [4]
  pKi: 8.51
[2]; [5]
  pIC50: 7.23

## Cc1c([C@@H](C)Nc2nnc(C)c3ccc(N4CCOCC4)cc23)cc(N)cc1C(F)(F)F [Example 15-2, (R)—N-(1-(5-amino-2-methyl-3-(trifluoromethyl)phenyl)ethyl)-4-methyl-7-morpholinophthalazin-1-amine]
[1]
  pKi: 9.38
[2]; MKN-1, pERK inhibition, In-Cell Western, MKN1 or H358 cells (Table 24 does not say which), 0.5-1 hour incubation
  pIC50: 8.10

## Cc1c([C@@H](C)Nc2nnc(C)c3ccc(N4CC(C)(N(C)C)C4)cc23)cccc1C(F)(F)F [Example 10-66, (R)-7-(3-(dimethylamino)-3-methylazetidin-1-yl)-4-methyl-N-(1-(2-methyl-3-(trifluoromethyl)phenyl)ethyl)phthalazin-1-amine]
[1]; [4]
  pKi: 9.11
[2]; [5]
  pIC50: 6.97

## Cc1c(C#N)cccc1[C@@H](C)Nc1nnc(C)c2cc(F)c(N3CCNCC3)cc12 [Example 18-4, (R)-3-(1-((6-fluoro-4-methyl-7-(piperazin-1-yl)phthalazin-1-yl)amino)ethyl)-2-methylbenzonitrile]
[1]; [4]
  pKi: 8.79
[2]; [5]
  pIC50: 7.39

## Cc1c([C@@H](C)Nc2nnc(C)c3cnc(N4CCN(c5cnn(C)c5)CC4)cc23)cccc1C(F)(F)F [Example 12-1, (R)-4-methyl-7-(4-(1-methyl-1H-pyrazol-4-yl)piperazin-1-yl)-N-(1-(2-methyl-3-(trifluoromethyl)phenyl)ethyl)pyrido[3,4-d]pyridazin-1-amine]
[1]; [4]
  pKi: 9.70
[2]; [5]
  pIC50: 8.30

## Cc1c([C@@H](C)Nc2nnc(C)c3cnc(N4CCC4)cc23)cccc1C(F)(F)F [Example 12-38]
[1]; [4]
  pKi: 8.89
[2]; [5]
  pIC50: 7.01

## Cc1c(C#N)cccc1[C@@H](C)Nc1nnc(C)c2cnc(N3CC(N(C)C)C3)cc12 [Example 12-54]
[1]; [4]
  pKi: 8.27
[2]; [5]
  pIC50: 7.35

## Cc1c([C@@H](C)Nc2nnc(C)c3cnc(N4C[C@@H]5C[C@H]4CO5)cc23)cccc1C(F)(F)F [Example 12-8]
[1]; [4]
  pKi: 8.94
[2]; [5]
  pIC50: 7.42

## Cc1nnc(N[C@H](C)c2ccc(F)cc2Cl)c2cc(N3CCOCC3)ccc12 [Example 10-59, (R)-N-(1-(2-chloro-4-fluorophenyl)ethyl)-4-methyl-7-morpholinophthalazin-1-amine Hydrochloride salt]
[1]; [3]
  pKi: 7.51
[2]; MKN-1
  pIC50: 6.24

## Cc1c([C@@H](C)Nc2nnc(C)c3ccc(N4CCN5C(=O)CC[C@H]5C4)cc23)cccc1C(F)(F)F [Example 10-13, (S)-2-(1-methyl-4-(((R)-1-(2-methyl-3-(trifluoromethyl)phenyl)ethyl)amino)phthalazin-6-yl)hexahydropyrrolo[1,2-a]pyrazin-6(2H)-one]
[1]; [4]
  pKi: 9.31
[2]; [5]
  pIC50: 7.41

## Cc1c([C@@H](C)Nc2nnc(C)c3ccc(N4CCC(N5CCC(F)(F)C5)CC4)cc23)cccc1C(F)(F)F [Example 10-49, (R)-7-(4-(3,3-difluoropyrrolidin-1-yl)piperidin-1-yl)-4-methyl-N-(1-(2-methyl-3-(trifluoromethyl)phenyl)ethyl)phthalazin-1-amine Formate salt]
[1]; [3]
  pKi: 9.25
[2]; MKN-1
  pIC50: 6.97

## Cc1c([C@@H](C)Nc2nnc(C)c3cnc(O[C@H]4CCN(C)C4)cc23)cccc1C(F)(F)F [Example 12-11]
[1]; [4]
  pKi: 8.06
[2]; [5]
  pIC50: 6.85

## Cc1c([C@@H](C)Nc2nnc(C)c3ccc(N4CCC5(CCN(C)C5)CC4)cc23)cccc1C(F)(F)F [Example 10-37, (R)-4-methyl-N-(1-(2-methyl-3-(trifluoromethyl)phenyl)ethyl)-7-(2-methyl-2,8-diazaspiro[4.5]decan-8-yl)phthalazin-1-amine hydrochloride salt]
[1]; [3]
  pKi: 9.62
[2]; MKN-1
  pIC50: 7.26

## Cc1cccc(C(C)Nc2nnc(C)c3ccc(N4CCOCC4)cc23)c1Cl (stereo not drawn) [Example 10-60, N-(1-(2-chloro-3-methylphenyl)ethyl)-4-methyl-7-morpholinophthalazin-1-amine]
[1]; [4]
  pKi: 8.70
[2]; [5]
  pIC50: 6.02

## Cc1nnc(N[C@H](C)c2cc(F)cc(C#N)c2)c2cc(N3CCOCC3)ccc12 [Example 10-52, (R)-3-fluoro-5-(1-((4-methyl-7-morpholinophthalazin-1-yl)amino)ethyl)benzonitrile]
[1]; [4]
  pKi: 7.35
[2]; [5]
  pIC50: 6.54

## Cc1c([C@@H](C)Nc2nnc(C)c3cnc(N4CCC(C)(O)CC4)cc23)cccc1C(F)(F)F [Example 12-7]
[1]; [4]
  pKi: 9.40
[2]; [5]
  pIC50: 7.18

## Cc1nnc(N[C@H](C)c2ccc(F)cc2F)c2cc(N3CCN4CCOC[C@@H]4C3)ncc12 [Example 12-48]
[1]; [4]
  pKi: 7.77
[2]; [5]
  pIC50: 6.94

## Cc1c([C@@H](C)Nc2nnc(C)c3cnc(N4CCC(C)(N(C)C)CC4)cc23)cccc1C(F)(F)F [Example 12-18]
[1]; [4]
  pKi: 9.21
[2]; [5]
  pIC50: 7.43

## Cc1c([C@@H](C)Nc2nnc(C)c3cnc(N4CC5(CCN(C)C5)C4)cc23)cccc1C(F)(F)F [Example 12-17]
[1]; [4]
  pKi: 9.34
[2]; [5]
  pIC50: 7.77

## Cc1c(C#N)cccc1[C@@H](C)Nc1nnc(C)c2cnc(N3CCC(N4CCC4)CC3)cc12 [Example 12-29]
[1]; [4]
  pKi: 8.78
[2]; [5]
  pIC50: 7.80

## COCCN1C[C@H]2CC[C@@H]1CN2c1cc2c(N[C@H](C)c3cccc(C#N)c3C)nnc(C)c2cn1 [Example 12-70]
[1]; [4]
  pKi: 9.17
[2]; [5]
  pIC50: 7.89

## Cc1c(C#N)cccc1[C@@H](C)Nc1nnc(C)c2ccc(N3CCC(N(C)C)CC3)cc12 [Example 10-57, (R)-3-(1-((7-(4-(dimethylamino)piperidin-1-yl)-4-methylphthalazin-1-yl)amino)ethyl)-2-methylbenzonitrile Formate salt]
[1]; [3]
  pKi: 9.12
[2]; MKN-1
  pIC50: 7.34

## Cc1c(C#N)cccc1[C@@H](C)Nc1nnc(C)c2cnc(N3CC4(CCN(CC(F)(F)F)C4)C3)cc12 [Example 12-78]
[1]; [4]
  pKi: 8.58
[2]; [5]
  pIC50: 7.03

## Cc1nnc(N[C@H](C)c2cccc3ccccc23)c2cc(N3CCNCC3)ccc12 [Example 10-43, (R)-4-methyl-N-(1-(naphthalen-1-yl)ethyl)-7-(piperazin-1-yl)phthalazin-1-amine formate salt]
[1]; [3]
  pKi: 8.95
[2]; MKN-1
  pIC50: 6.86

## Cc1cccc([C@@H](C)Nc2nnc(C)c3cnc(N4CC(C)(O)C4)cc23)c1F [Example 12-132]
[1]; [4]
  pKi: 7.96
[2]; [5]
  pIC50: 7.12

## Cc1c([C@@H](C)Nc2nnc(C)c3cnc(N4C[C@H]5CC[C@@H]4CN5C)cc23)cccc1C(F)(F)F [Example 12-26]
[1]; [4]
  pKi: 9.35
[2]; [5]
  pIC50: 7.57

## Cc1nnc(N[C@H](C)c2cccc(C(F)(F)F)c2F)c2cc(N3CC(C)(O)C3)ncc12 [Example 12-61]
[1]; [4]
  pKi: 8.77
[2]; [5]
  pIC50: 7.68

## CCc1ccc2c(C)nnc(N[C@H](C)c3ccc(-c4ccccc4CNC)s3)c2c1 [8-2, (R)-7-ethyl-4-methyl-N-(1-(5-(2-((methylamino)methyl)phenyl)thiophen-2-yl)ethyl)phthalazin-1-amine]
[1]; [4]
  pKi: 8.43
[2]; [5]
  pIC50: 6.22

## Cc1c(C#N)cccc1[C@@H](C)Nc1nnc(C)c2cnc(N3CC4(CCN(C)C4=O)C3)cc12 [Example 12-35]
[1]; [4]
  pKi: 8.42
[2]; [5]
  pIC50: 7.46

## Cc1nnc(N[C@H](C)c2cccc(C(F)F)c2F)c2cc(N3C[C@H]4C[C@@H]3CO4)ccc12 [Example 10-85, 7-((1R,4R)-2-oxa-5-azabicyclo[2.2.1]heptan-5-yl)-N-((R)-1-(3-(difluoromethyl)-2-fluorophenyl)ethyl)-4-methylphthalazin-1-amine]
[1]; [4]
  pKi: 9.11
[2]; [5]
  pIC50: 7.74

## Cc1nnc(N[C@H](C)c2ccc(F)cc2F)c2cc(N3CC(C)(O)C3)ncc12 [Example 12-47]
[1]; [4]
  pKi: 7.41
[2]; [5]
  pIC50: 6.51

## Cc1cccc([C@@H](C)Nc2nnc(C)c3cnc(N4CCN5CCOC[C@@H]5C4)cc23)c1F [Example 12-131]
[1]; [4]
  pKi: 8.44
[2]; [5]
  pIC50: 7.55

## Cc1nnc(N[C@H](C)c2cccc(F)c2F)c2cc(N3CC(C)(N(C)C)C3)ncc12 [Example 12-83]
[1]; [4]
  pKi: 7.30
[2]; [5]
  pIC50: 6.13

## Cc1c(C#N)cc(F)cc1[C@@H](C)Nc1nnc(C)c2cnc(N3CCC(C)(N(C)C)CC3)cc12 [Example 12-104]
[1]; [4]
  pKi: 8.21
[2]; [5]
  pIC50: 7.04

## Cc1c(C#N)cc(F)cc1[C@@H](C)Nc1nnc(C)c2cnc(N3C[C@H]4C[C@@H]3CO4)cc12 [Example 12-105]
[1]; [4]
  pKi: 7.96
[2]; [5]
  pIC50: 7.01

## Cc1c([C@@H](C)Nc2nnc(C)c3cnc(N4CC5(CCN(C)C5=O)C4)cc23)cccc1C(F)(F)F [Example 12-16]
[1]; [4]
  pKi: 9.06
[2]; [5]
  pIC50: 7.96
